These results are taken from US8962600B2, “Neuroprotective compounds and their use” (The Medical College of Wisconsin, Inc., priority 2009, dated 2015).

Test [1] concerns subchronic MPTP mouse model. Briefly: Subchronic MPTP mouse model, striatal neurotransmitters by HPLC-EC (Example 2). Type of test: in vivo. The conditions noted are these: for protection against subchronic MPTP-induced depletion of striatal dopac levels / protection against subchronic MPTP-induced depletion of striatal dopamine levels: MPTP 20 mg/kg i.p. 5 days. How it is done:
The triphenylphosphonium-conjugated apocynin analogue, Mito-apocynin, acts as a potent mitochondrial targeted antioxidant (MTA). The nigrostriative dopaminergic neurons undergo destruction in a slow and progressive manner in idiopathic PD. In order to mimic this condition in a preclinical mouse model, a subchronic MPTP mouse model was developed. The mouse model used here was similar to that used in Example 3 below. Mice were treated with Mito-apocynin (3 mg/kg, oral gavage) for 1 day followed by subchronic MPTP (20 mg/kg, i.p.) administration for 5 days. Animals were sacrificed 7 days after the last dose of MPTP (Mito-apocynin was administered during the 7 days). Striatal neurotransmitters (dopamine, dopac) were analyzed by HPLC-EC. Similar experiments were performed with apocynin (20 mg/kg, oral gavage; lower doses were also tested but not effective).

A further test relates to BV2 microglial cells. Kind of test: LPS-induced iNOS activation (nitrite, Griess reagent) in BV2 microglial cells. It is filed as cell-based, mouse. The conditions noted are these: 30 min pretreatment, Griess reagent. As to the method: Two cell models of neuroinflammation were used to evaluate the anti-neuroinflammatory property of diapocynin including the mouse BV2 microglial cell line, as well as primary microglia isolated from mouse brains. BV2 cells were obtained from the American Tissue Culture Collection. BV2 cells were maintained in RPMI containing 10% FBS and 100 units of pen/strep at 37° C. and 5% CO2. For treatments, RPMI containing 2% FBS and 100 units of pen/strep was used.
Inducible nitric oxide synthase (iNOS or NOS2) activation was assessed by measuring nitrite levels using Griess reagent in a 96-well format (70-72). Each well contained 40,000 BV2 cells or 100,000 primary microglia. BV2 cells were cultured in 150 μl of RPMI containing 10% FBS and pen/strep, and the primary microglia were cultured in DMEM-F12 containing 10% FBS, pen/strep, sodium pyruvate (S/P), Q, and NEAAs. One day after culturing, cells were replaced with 150 μl of their respective complete media containing only 2% FBS. Both cell types were pretreated with diapocynin (10 μM) and apocynin (100 μM) for 30 min before LPS stimulation (1 μg/ml LPS for BV2 cells and 100 ng/ml for primary microglia), and the plates were incubated at 37° C. After 24 hr at 37° C., 100 μl of supernatant were removed and placed into a new 96 well plate, to which 100 μl of Griess reagent were added. The plate was shaken on a plate shaker for 10 min before being read in a plate reader at 540 nm.
This example generally followed the cell culture, treatment, and analysis steps of Example 4 above.
Diapocynin diacetate (diapodiacetate or diapo diace) suppresses LPS-induced NOS-2 in BV2 microglial cells (FIG. 21). BV-2 cells were plated in 96 well plates, 40,000 cells per well, and treated in 150 μl of RPMI containing 2% heat inactivated FBS and penicillin/streptomycin. Diapo diacetate was used on the cells as a 30 min pretreatment, then LPS (1 μg/ml) was added. All treatments were allowed to incubate at 37° C. for 24 hr, starting from the addition of LPS. One hundred microliter aliquots of supernatant from each well were combined with 100 μl of Griess reagent (Sigma) in a 96-well plate and allowed to shake for 10 minutes before being read on the plate reader. The percent nitrite level for the treatments compared to the control was graphed.
Background: The Griess reaction detects nitrite, a stable product of nitric oxide.

The next test has as its system IL-1β. Kind of test: LPS-induced IL-1β release in primary microglia, LUMINEX immunoassay. Type of test: cell-based, mouse. To be noted: apocynin 100 μM, LPS 24 hr. How it is done:
(§1) Primary microglia were obtained from 1-2 day old C57/b16 mouse pups. Upon collection, whole brains were kept in ice-cold DMEM-F12 medium containing 10% FBS, 1× sodium pyruvate, 1× NEAAs, 100 units pen/strep, and Q. After collection, the brains were placed in 0.25% trypsin-EDTA and incubated at 37° C., with gentle shaking every 5-10 min. After 30 min, the trypsin was removed, and the brains are washed in warmed medium twice. After washing, medium was added to the brains, and the brains were homogenized using gentle pipetting, starting with a 25 ml pipette and moving to smaller pipette tips as the brains were broken up. When the brains were sufficiently homogenized to a single-cell suspension, they were filtered with a 70 μm nylon filter, which allowed microglia and astrocytes to be collected. The resultant cell suspension was plated in T-75 flasks and allowed to grow for 12-14 days at 37° C., 5% CO2. […]
(§2) Cytokine levels of BV2 and microglial cells treated with diapocynin were determined by LUMINEX® multiplex immunoassay. […]
(§3) Cytokine standards and controls were adjusted to 40 μl volume and the LUMINEX® Samples were run on a LUMINEX® 200 Total System and analyzed with Multiplex Analysis—LUMINEX® Software (Invitrogen, Carlsbad, Calif.).

The next test relates to IL-10. Briefly: LPS-induced IL-10 release in primary microglia, LUMINEX immunoassay. It is filed as cell-based, mouse. The conditions noted are these: apocynin 100 μM, LPS 24 hr. As to the method: as §1, §2, §3
Another test concerns IL-12. Kind of test: LPS-induced IL-12 release in primary microglia, LUMINEX immunoassay. To be noted: apocynin 100 μM, LPS 24 hr. Type of test: cell-based, mouse. As to the method: as §1, §2, §3
Another test has as its system TNF-α. Briefly: LPS-induced TNF-α release in primary microglia, LUMINEX immunoassay. Type of test: cell-based, mouse. The conditions noted are these: apocynin 100 μM, LPS 24 hr. How it is done:
as §1, §2, §3

The subject of the next test is G93A mice. To be noted: apocynin 300 mg/kg; cited from earlier work.
Setting [2] is: Mito-apocynin 3 mg/kg oral gavage, sacrifice 7 days after last MPTP dose.

For `COc1cc(C(=O)NCC[P+](c2ccccc2)(c2ccccc2)c2ccccc2)ccc1O.[Br-]` [Mito-apocynin], in test [1] (setting [2]), the “protection against subchronic MPTP-induced depletion of striatal dopac levels” value is given as “almost completely protected” and the “protection against subchronic MPTP-induced depletion of striatal dopamine levels” value was “almost completely protected”.
As for Diapocynin diacetate, the “LPS-induced NOS-2 (percent nitrite level compared to control)” value with BV2 microglial cells (BV2 cells, LPS 1 μg/ml 24 hr) is “suppresses”.
What is called EC50 is the concentration that produces a half-maximal response. On to `COc1cc(C(C)=O)ccc1O` [apocynin, Apocynin, reference compound], for which, in test [1] (apocynin 20 mg/kg oral gavage), the “protection against subchronic MPTP-induced depletion of striatal dopac levels” value was “not” and the “protection against subchronic MPTP-induced depletion of striatal dopamine levels” value is given as “not”. The “effect on striatal neurotransmitters (dopamine, dopac)” value in test [1] (apocynin at doses lower than 20 mg/kg, oral gavage) is reported as “not effective”. Further, the EC50 in the test on BV2 microglial cells (Mus musculus, BV-2 cells, LPS 1 μg/ml, non-linear regression of dose response curve, read-out: EC50, block of LPS-induced iNOS activation (nitrite level)) came to 61.3 µM. In addition, in the test with IL-1β, the “blocking LPS-induced release of IL-1β” value is on record as “also effective”. In the test on IL-10, the “blocking LPS-induced release of IL-10” value was “also effective”. The “blocking LPS-induced release of IL-12” value in the test with IL-12 is reported as “also effective”. The “blocking LPS-induced release of TNF-α” value in the test with TNF-α is “also effective”. Also, in the test on G93A mice, the “lifespan of G93A mice” value is given as “markedly enhanced”.
